Laboratory results reported in US20210379184A1, “Deep Eutectic Solvent Platform for Oral Pharmaceutical Formulations” (SeraNovo B.V., priority 2018, published 2021).
Values after ≈ are worked out from the molar mass of the structure shown.

Experiment: physchem
Source text: The DES systems contained propylene glycol, a specific polymer solubilizer, and one or more (NA)DES constituents.

Concentration solubilized API (mg/mL)	factor by which the concentration solubilized in DES exceeds the solubility of the drug in water	solubility (20 °C, pH 7, water)	solubility (organic solvent or mixture, solubility of itraconazole)	solubility (organic solvent or mixture, Concentration solubilized API (mg/mL))	Compound
up to 200 mg/mL	≤ 10.000.000	0.004 µg/mL (≈ 0.00567 µM)	< 25000 µg/mL	–	CCC(C)n1ncn(-c2ccc(N3CCN(c4ccc(OCC5COC(Cn6cncn6)(c6ccc(Cl)cc6Cl)O5)cc4)CC3)cc2)c1=O (centres unmarked) [Itraconazole]
–	at least 100	21 µg/mL (≈ 102 µM)	–	–	CC(C)Cc1ccc(C(C)C(=O)O)cc1 (centres unmarked) [Ibuprofen]
–	–	17 µg/mL (≈ 72 µM)	–	> 100000 µg/mL	NC(=O)N1c2ccccc2C=Cc2ccccc21 [Carbamazepine]
–	–	0.6 µg/mL (≈ 1.48 µM)	–	–	COc1ccccc1OCCNCC(O)COc1cccc2[nH]c3ccccc3c12 (centres unmarked) [Carvedilol]
–	–	0.09 µg/mL (≈ 0.169 µM)	–	–	CC(=O)N1CCN(c2ccc(OCC3COC(Cn4ccnc4)(c4ccc(Cl)cc4Cl)O3)cc2)CC1 (centres unmarked) [Ketoconazole]
–	–	9.1 µg/mL (≈ 32.4 µM)	–	–	O=C(O)c1ccccc1Nc1cccc(C(F)(F)F)c1 [Flufenamic Acid]
